How the values were obtained:
Assay in all cases: relative viability (nuclei count vs DMSO), 5 days (fraction); higher = more cells survive
[1] = tested on: IA-LM
Outline: (§1)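 Lung cancer cell lines in 1536-well plates got either a single drug or a fixed anchor-drug dose together with five library-drug doses (not always all listed) in √10 steps, by pin tool, on the day after seeding. Nuclei were counted after 5 days, and relative viability is the treated-to-vehicle ratio of nuclei counts. Values are medians of duplicate plates.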

[2] = tested on: ABC-1
Outline: as §1

[3] = tested on: Calu-6
Outline: as §1

[4] = tested on: NCI-H1703
Outline: as §1

[5] = tested on: NCI-H1437
Outline: as §1

[6] = tested on: EBC-1
Outline: as §1

[7] = tested on: NCI-H1651
Outline: as §1

[8] = tested on: COR-L23
Outline: as §1

[9] = tested on: SW 1573
Outline: as §1

[10] = tested on: NCI-H1299
Outline: as §1

[11] = tested on: ChaGo-K-1
Outline: as §1

Cc1sc2c(c1C)C(c1ccc(Cl)cc1)=N[C@@H](CC(=O)OC(C)(C)C)c1nnc(C)n1-2 [JQ1] + CC(C)C[C@H](NC(=O)[C@H](Cc1ccccc1)NC(=O)c1cnccn1)B(O)O [Bortezomib] (partner 0.002 µM)
relative viability ([1]; first compound 0.04 µM): 0.643 | relative viability ([1]; first compound 0.1265 µM): 0.428 | relative viability ([1]; first compound 0.4 µM): 0.0917 | relative viability ([1]; first compound 1.265 µM): 0.0837 | relative viability ([1]; first compound 4 µM): 0.0676 | relative viability ([2]; first compound 0.04 µM): 0.306 | relative viability ([2]; first compound 0.1265 µM): 0.233 | relative viability ([2]; first compound 0.4 µM): 0.329 | relative viability ([2]; first compound 1.265 µM): 0.332 | relative viability ([2]; first compound 4 µM): 0.272 | relative viability ([3]; first compound 0.04 µM): 1.04 | relative viability ([3]; first compound 0.1265 µM): 0.931 | relative viability ([3]; first compound 0.4 µM): 0.815 | relative viability ([3]; first compound 1.265 µM): 0.663 | relative viability ([3]; first compound 4 µM): 0.391 | relative viability ([4]; first compound 0.04 µM): 0.248 | relative viability ([4]; first compound 0.1265 µM): 0.206 | relative viability ([4]; first compound 0.4 µM): 0.19 | relative viability ([4]; first compound 1.265 µM): 0.122 | relative viability ([4]; first compound 4 µM): 0.102 | relative viability ([5]; first compound 0.04 µM): 0.42 | relative viability ([5]; first compound 0.1265 µM): 0.369 | relative viability ([5]; first compound 0.4 µM): 0.276 | relative viability ([5]; first compound 1.265 µM): 0.228 | relative viability ([5]; first compound 4 µM): 0.194 | relative viability ([6]; first compound 0.04 µM): 0.451 | relative viability ([6]; first compound 0.1265 µM): 0.245 | relative viability ([6]; first compound 0.4 µM): 0.219 | relative viability ([6]; first compound 1.265 µM): 0.168 | relative viability ([6]; first compound 4 µM): 0.19 | relative viability ([7]; first compound 0.04 µM): 0.919 | relative viability ([7]; first compound 0.1265 µM): 0.781 | relative viability ([7]; first compound 0.4 µM): 0.842 | relative viability ([7]; first compound 1.265 µM): 0.9 | relative viability ([7]; first compound 4 µM): 0.635 | relative viability ([8]; first compound 0.04 µM): 0.981 | relative viability ([8]; first compound 0.1265 µM): 0.673 | relative viability ([8]; first compound 0.4 µM): 0.792 | relative viability ([8]; first compound 1.265 µM): 0.579 | relative viability ([8]; first compound 4 µM): 0.17 | relative viability ([9]; first compound 0.04 µM): 1.13 | relative viability ([9]; first compound 0.1265 µM): 1.03 | relative viability ([9]; first compound 0.4 µM): 0.863 | relative viability ([9]; first compound 1.265 µM): 0.582 | relative viability ([9]; first compound 4 µM): 0.351 | relative viability ([10]; first compound 0.04 µM): 1.03 | relative viability ([10]; first compound 0.1265 µM): 0.924 | relative viability ([10]; first compound 0.4 µM): 0.963 | relative viability ([10]; first compound 1.265 µM): 0.499 | relative viability ([10]; first compound 4 µM): 0.363 | relative viability ([11]; first compound 0.04 µM): 1.09 | relative viability ([11]; first compound 0.4 µM): 1.06 | relative viability ([11]; first compound 1.265 µM): 0.493 | relative viability ([11]; first compound 4 µM): 0.373

COc1cc2nccc(Oc3ccc(NC(=O)Nc4cc(C)on4)c(Cl)c3)c2cc1OC [Tivozanib] + CC(C)C[C@H](NC(=O)[C@H](Cc1ccccc1)NC(=O)c1cnccn1)B(O)O [Bortezomib] (partner 0.002 µM)
relative viability ([1]; first compound 0.005 µM): 0.716 | relative viability ([1]; first compound 0.01581 µM): 0.812 | relative viability ([1]; first compound 0.05 µM): 0.821 | relative viability ([1]; first compound 0.1581 µM): 0.623 | relative viability ([1]; first compound 0.5 µM): 0.614 | relative viability ([2]; first compound 0.005 µM): 0.315 | relative viability ([2]; first compound 0.01581 µM): 0.3 | relative viability ([2]; first compound 0.05 µM): 0.277 | relative viability ([2]; first compound 0.1581 µM): 0.304 | relative viability ([2]; first compound 0.5 µM): 0.288 | relative viability ([3]; first compound 0.005 µM): 0.904 | relative viability ([3]; first compound 0.01581 µM): 1.08 | relative viability ([3]; first compound 0.05 µM): 0.986 | relative viability ([3]; first compound 0.1581 µM): 0.965 | relative viability ([3]; first compound 0.5 µM): 0.95 | relative viability ([4]; first compound 0.005 µM): 0.247 | relative viability ([4]; first compound 0.01581 µM): 0.186 | relative viability ([4]; first compound 0.05 µM): 0.154 | relative viability ([4]; first compound 0.1581 µM): 0.167 | relative viability ([4]; first compound 0.5 µM): 0.164 | relative viability ([5]; first compound 0.005 µM): 0.487 | relative viability ([5]; first compound 0.01581 µM): 0.558 | relative viability ([5]; first compound 0.05 µM): 0.523 | relative viability ([5]; first compound 0.1581 µM): 0.508 | relative viability ([5]; first compound 0.5 µM): 0.399 | relative viability ([6]; first compound 0.005 µM): 0.5 | relative viability ([6]; first compound 0.01581 µM): 0.561 | relative viability ([6]; first compound 0.05 µM): 0.624 | relative viability ([6]; first compound 0.1581 µM): 0.511 | relative viability ([6]; first compound 0.5 µM): 0.477 | relative viability ([7]; first compound 0.005 µM): 0.895 | relative viability ([7]; first compound 0.01581 µM): 0.985 | relative viability ([7]; first compound 0.05 µM): 1.02 | relative viability ([7]; first compound 0.1581 µM): 0.865 | relative viability ([7]; first compound 0.5 µM): 0.986 | relative viability ([8]; first compound 0.005 µM): 0.88 | relative viability ([8]; first compound 0.01581 µM): 0.931 | relative viability ([8]; first compound 0.05 µM): 1.13 | relative viability ([8]; first compound 0.1581 µM): 1.01 | relative viability ([8]; first compound 0.5 µM): 0.869 | relative viability ([9]; first compound 0.005 µM): 1.02 | relative viability ([9]; first compound 0.01581 µM): 1.01 | relative viability ([9]; first compound 0.05 µM): 0.936 | relative viability ([9]; first compound 0.1581 µM): 0.772 | relative viability ([9]; first compound 0.5 µM): 0.831 | relative viability ([10]; first compound 0.005 µM): 1.05 | relative viability ([10]; first compound 0.01581 µM): 1.02 | relative viability ([10]; first compound 0.05 µM): 1.01 | relative viability ([10]; first compound 0.1581 µM): 1.06 | relative viability ([10]; first compound 0.5 µM): 0.958 | relative viability ([11]; first compound 0.005 µM): 0.907 | relative viability ([11]; first compound 0.01581 µM): 1.08 | relative viability ([11]; first compound 0.05 µM): 1 | relative viability ([11]; first compound 0.1581 µM): 0.969 | relative viability ([11]; first compound 0.5 µM): 0.935

— the supplement of paper PMC10307832
